# According to patent US20040258754A1, “Compositions for oral administration of camptothecin and its analogs” (priority 2003, published 2004):
# Read-outs that look alike come from different tables or passages of the source.
# Legend:
# [1] = cited from earlier work
# [2] = for Relative Peak Area: 37° C.
# [3] = Loading (uptake) of drugs into Pluronic-PAA microgels; format: physicochemical; settings: 1 wt % microgel suspension pH 7.0
# Protocol: The beads were used in order to enhance the area of contact between the microgel suspension and drug. The beads were separated into several fractions. One fraction was added to a polypropylene vial containing the microgel suspension (0.5 mL) and the vial was gently shaken in a horizontal position in an environmental chamber at 20 or 37° C. Then the beads were recovered from the suspension by using a magnet. The beads were dried under vacuum and placed into an appropriate solvent (0.5 mL), where the solute was extracted after shaking overnight. The solvent fraction was assayed for the solute concentration using HPLC. The control fraction of loaded beads was subjected to the extraction without equilibration with the microgel suspension. The solute concentrations were measured in triplicate using the HPLC system described above. […] The peak area was integrated and used to calculate camptothecin concentration using standard calibration curves.
# [4] = Solubility of camptothecin in formulations with Pluronic P85; format: physicochemical; settings: aqueous with cosolvent or surfactant or cyclodextrin, thermodynamic from solid, read-out: Camptothecin concentration (solubility)
# Protocol: Calibration. Fluorescence of 0.300 mL samples of camptothecin solutions in methanol containing between 0.00003 and 0.0005 mg/mL, in triplicates on Helma Quarz plate, was measured using Bio-Tek FL600 fluorescence plate reader with excitation filter wavelength/bandwidth 360/40 nm and emission filter 530/25 nm, sensitivity 70. The average fluorescence was fitted to a linear equation and gave: […]
# where C—camptothecin concentration [mg/mL].
# Solubility. 0.1 mg camptothecin samples, in triplicates, and 1 mL of the respective buffer or carrier solution, were incubated at room temperature with shaking for 1 hour. The samples were then filtered through Acrodisc CR, PTFE Syringe filter, 4 mm diameter, 0.45 μm pore size Gelman part No. 4472. The filtrate was diluted 100 times with methanol, and the final concentration of camptothecin was determined by fluorescence measurement using the above-described calibration.
# [5] = target: human serum albumin (HSA) (Homo sapiens, UniProt P02768); settings: pH 7.4; cited from earlier work
# Sequence of human serum albumin (HSA) (P02768 25-609): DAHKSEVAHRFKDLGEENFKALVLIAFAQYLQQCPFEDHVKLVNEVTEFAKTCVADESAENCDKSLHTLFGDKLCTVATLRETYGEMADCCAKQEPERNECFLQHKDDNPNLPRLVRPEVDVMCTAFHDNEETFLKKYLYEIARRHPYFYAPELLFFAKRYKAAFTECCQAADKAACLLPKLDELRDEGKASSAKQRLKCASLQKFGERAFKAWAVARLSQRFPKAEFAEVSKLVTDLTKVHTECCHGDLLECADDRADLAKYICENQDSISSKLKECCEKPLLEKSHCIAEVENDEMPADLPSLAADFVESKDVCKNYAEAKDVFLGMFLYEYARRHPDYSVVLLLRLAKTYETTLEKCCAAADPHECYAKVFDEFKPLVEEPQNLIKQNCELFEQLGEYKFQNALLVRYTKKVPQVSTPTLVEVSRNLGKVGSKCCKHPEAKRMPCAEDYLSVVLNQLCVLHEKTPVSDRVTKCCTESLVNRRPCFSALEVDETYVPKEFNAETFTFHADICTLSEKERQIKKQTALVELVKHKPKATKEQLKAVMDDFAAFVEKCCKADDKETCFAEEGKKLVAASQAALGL
# [6] = CPT-11 in human serum Without Gel, exposure 10 min
# [7] = CPT-11 loaded in Pluronic-PAA-EGDMA gel (F127-PAA) in human serum, exposure 1 h
compound,measurement,setting,value
C[C@]12CC[C@@H]3c4ccc(O)cc4CC[C@H]3[C@@H]1CC[C@@H]2O [β-Estradiol],Log P,[1],3.86
CCc1c2c(nc3ccc(O)cc13)-c1cc(C(O)(CC)C(=O)O)c(CO)c(=O)n1C2 (centres unmarked) [SN28-c],Relative Peak Area,[2]; [6],1.18
same,Relative Peak Area,[2]; [7],not detected
CC(=O)O[C@H]1C(=O)[C@@]2(C)[C@H]([C@H](OC(=O)c3ccccc3)[C@]3(O)C[C@H](OC(=O)[C@H](O)[C@@H](NC(=O)c4ccccc4)c4ccccc4)C(C)=C1C3(C)C)[C@]1(OC(C)=O)CO[C@@H]1C[C@@H]2O [Taxol],Uptake ± S.D.,"[3]; F127-based gel, 20° C.",2.27 ± 0.90 (20° C.) μmol/g gel
same,Uptake ± S.D.,"[3]; F127-based gel, 37° C.",6.97 ± 0.87 (37° C.) μmol/g gel
same,Uptake ± S.D.,"[3]; L92-based gel, 20° C.",3.65 ± 0.43 (20° C.) μmol/g gel
same,Uptake ± S.D.,"[3]; L92-based gel, 37° C.",7.25 ± 0.74 (37° C.) μmol/g gel
CCc1c2c(nc3ccc(OC(=O)N4CCC(NCCCCC(=O)O)CC4)cc13)-c1cc3c(c(=O)n1C2)COC(=O)[C@]3(O)CC [APC-L],Relative Peak Area,[2]; [6],0.778
same,Relative Peak Area,[2]; [7],not detected
"CCc1c2c(nc3ccc(OC(=O)N4CCC(N5CCCCC5)CC4)cc13)-c1cc3c(c(=O)n1C2)COC(=O)[C@]3(O)CC [CPT-11, irinotecan]",metabolism in human serum without encapsulation into gels,"[2]; male, human, 15 min, 0.013 mg/mL",a substantial portion of CPT-11 was metabolised
CC[C@@]1(O)C(=O)OCc2c1cc1n(c2=O)Cc2cc3ccccc3nc2-1 [Camptothecin],solubility at 1 h,"[4]; 1% Pluronic P85 in PBS, P85 1% in PBS pH 7.2, room temperature",3.1 ± 1.5 µg/mL
same,solubility at 1 h,"[4]; 3% Pluronic P85 in PBS, P85 3% in PBS pH 7.2, room temperature",4.9 ± 1.5 µg/mL
same,Uptake ± S.D.,"[3]; F127-based gel, 20° C.",13.4 ± 1.54 (20° C.) μmol/g gel
same,Uptake ± S.D.,"[3]; F127-based gel, 37° C.",16.3 ± 1.86 (37° C.) μmol/g gel
same,Uptake ± S.D.,"[3]; L92-based gel, 20° C.",16.2 ± 1.87 (20° C.) μmol/g gel
same,Uptake ± S.D.,"[3]; L92-based gel, 37° C.",19.5 ± 2.33 (37° C.) μmol/g gel
same,Log P,[1],0.87
same,higher affinity of HSA for the carboxylate form than for the alpha-hydroxy lactone form,[5],150 fold
CCc1c2c(nc3ccc(O)cc13)-c1cc3c(c(=O)n1C2)COC(=O)[C@]3(O)CC [SN28-L],Relative Peak Area,[2]; [6],1.30
same,Relative Peak Area,[2]; [7],not detected
